In patent publication US20210214375A1 (LUNDBECK LA JOLLA RESEARCH CENTER, INC., priority 2017, published 2021):
Where two headings read alike, the source gives them in different places.

Molecular target: T1, MAGL (Homo sapiens, UniProt Q99685)
T1 construct: Proteomes (human prefrontal cortex or cell membrane fractions); from tissue
T1 sequence (Q99685 1-303): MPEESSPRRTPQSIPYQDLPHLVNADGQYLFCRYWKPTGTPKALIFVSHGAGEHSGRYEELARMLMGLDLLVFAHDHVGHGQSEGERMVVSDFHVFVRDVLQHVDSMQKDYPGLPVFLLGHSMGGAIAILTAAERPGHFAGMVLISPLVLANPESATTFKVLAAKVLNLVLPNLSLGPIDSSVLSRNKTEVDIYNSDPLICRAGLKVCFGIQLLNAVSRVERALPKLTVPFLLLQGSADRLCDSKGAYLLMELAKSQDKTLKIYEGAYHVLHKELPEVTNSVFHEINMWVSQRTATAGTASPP
Assay: In vitro competitive activity-based protein profiling (gel-based, FP-Rh or HT-01 probe)
Type: biochemical
Protocol: Compounds are tested to assess their MAGL and serine hydrolase activity using the following in vitro and in vivo assays.
Proteomes (human prefrontal cortex or cell membrane fractions) (50 μL, 1.0 mg/mL total protein concentration) were preincubated with varying concentrations of inhibitors at 37° C. After 30 min, FP—Rh or HT-01 (1.0 μL, 50 μM in DMSO) was added and the mixture was incubated for another 30 min at room temperature. Reactions were quenched with SDS loading buffer (15 μL-4×) and run on SDS-PAGE.

[1] = PC3 proteome, read-out: IC50 MGLL PC3 (Human)
[2] = PFC (prefrontal cortex) proteome
[3] = PFC (prefrontal cortex) proteome, read-out: IC50 MGLL PFC (Human)

Structure (SMILES)	IC50 [1] [nM]	% Inh MGLL PFC (Human, μM) [2]	IC50 [3] [nM]
O=C(O)C1CCN(c2cc(F)ccc2CN2CC3(CCN(C(=O)OC(C(F)(F)F)C(F)(F)F)CC3)C2)CC1 [Example 123, 1-(5-Fluoro-2-((7-(((1,1,1,3,3,3-hexafluoropropan-2-yl)oxy)carbonyl)-2,7-diazaspiro[3.5]nonan-2-yl)methyl)phenyl) piperidine-4-carboxylic acid]	100 to 1000		
CN(Cc1ccc(Cl)cc1N1CCC(C(=O)O)CC1)C1(C)CCN(C(=O)OC(C(F)(F)F)C(F)(F)F)CC1 [Example 135, 1-(5-Chloro-2-(((1-(((1,1,1,3,3,3-hexafluoropropan-2-yl)oxy)carbonyl)-4-methylpiperidin-4-yl)(methyl)amino)methyl)phenyl) piperidine-4-carboxylic acid]		### (### is ≥ 75%)	
O=C(O)C1CCN(c2cc(Cl)ccc2CN2CC3(CCN(C(=O)OC(C(F)(F)F)C(F)(F)F)CC3)C2)CC1 [Example 122, 1-(5-Chloro-2-((7-(((1,1,1,3,3,3-hexafluoropropan-2-yl)oxy)carbonyl)-2,7-diazaspiro[3.5]nonan-2-yl)methyl)phenyl) piperidine-4-carboxylic acid]	< 100		
CC1(OCc2cc(N3CCC(C(=O)O)CC3)cc(C(F)(F)F)c2)CCN(C(=O)OC(C(F)(F)F)C(F)(F)F)CC1 [Example 227]	< 100		
O=C(O)C1CN(c2cc(CN3CC4(CCN(C(=O)OC(C(F)(F)F)C(F)(F)F)CC4)C3)cc(C(F)(F)F)c2)CCO1 (centres unmarked) [Example 100, 4-(3-((7-(((1,1,1,3,3,3-Hexafluoropropan-2-yl)oxy)carbonyl)-2,7-diazaspiro[3.5]nonan-2-yl)methyl)-5-(trifluoromethyl)phenyl)morpholine-2-carboxylic acid]	< 100		
CC1(OCc2cc(CN3CCC(C(=O)O)CC3)cc(C(F)(F)F)c2)CCN(C(=O)OC(C(F)(F)F)C(F)(F)F)CC1 [Example 25, 1-(3-(((1-(((1,1,1,3,3,3-Hexafluoropropan-2-yl)oxy)carbonyl)-4-methylpiperidin-4-yl)oxy)methyl)-5-(trifluoromethyl)benzyl)piperidine-4-carboxylic acid]	< 100	### (### is ≥ 75%)	
O=C(O)C1CCN(Cc2cc(Cl)cc(C(=O)N3CCCC34CCN(C(=O)OC(C(F)(F)F)C(F)(F)F)CC4)c2)CC1 [Example 11, 1-(3-Chloro-5-(8-(((1,1,1,3,3,3-hexafluoropropan-2-yl)oxy)carbonyl)-1,8-diazaspiro[4.5]decane-1-carbonyl)benzyl)piperidine-4-carboxylic acid]	< 100	### (### is ≥ 75%)	
CC1(C(=O)O)CN(c2cc(CN3CC4(CCN(C(=O)OC(C(F)(F)F)C(F)(F)F)CC4)C3)cc(C(F)(F)F)c2)CCO1 (centres unmarked) [Example 22, 4-(3-((7-(((1,1,1,3,3,3-Hexafluoropropan-2-yl)oxy)carbonyl)-2,7-diazaspiro[3.5]nonan-2-yl)methyl)-5-(trifluoromethyl)phenyl)-2-methylmorpholine-2-carboxylic acid]	< 100		
O=C(O)C1CCN(c2cc(S(F)(F)(F)(F)F)ccc2CN2CCC3(CC2)CCN(C(=O)OC(C(F)(F)F)C(F)(F)F)C3)CC1 [Example 222, 1-(2-((2-(((1,1,1,3,3,3-Hexafluoropropan-2-yl)oxy)carbonyl)-2,8-diazaspiro[4.5]decan-8-yl)methyl)-5-(pentafluoro-l6-sulfaneyl)phenyl) piperidine-4-carboxylic acid]	100 to 1000		
CN(Cc1cc(C(F)(F)F)cc(C2(C(=O)O)CCCC2)c1)C1(C)CCN(C(=O)OC(C(F)(F)F)C(F)(F)F)CC1 [Example 138, 1-(3-{[(1-{[(1,1,1,3,3,3-Hexafluoropropan-2-yl)oxy]carbonyl}-4-methylpiperidin-4-yl)(methyl)amino]methyl}-5-(trifluoromethyl)phenyl)cyclopentane-1-carboxylic acid]		### (### is ≥ 75%)	< 100
CN(Cc1cccc(F)c1C1(C(=O)O)CCCC1)C1(C)CCN(C(=O)OC(C(F)(F)F)C(F)(F)F)CC1 [Example 144, 1-(2-Fluoro-6-{[(1-{[(1,1,1,3,3,3-hexafluoropropan-2-yl)oxy]carbonyl}-4-methylpiperidin-4-yl)(methyl)amino]methyl}phenyl) cyclopentane-1-carboxylic acid]	< 100	### (### is ≥ 75%)	
CN(Cc1ccc(C(F)(F)F)cc1-c1nnn[nH]1)C1(C)CCN(C(=O)OC(C(F)(F)F)C(F)(F)F)CC1 [Example 24, 1,1,1,3,3,3-Hexafluoropropan-2-yl 4-((2-(1H-tetrazol-5-yl)-4-(trifluoromethyl)benzyl)(methyl)amino)-4-methylpiperidine-1-carboxylate]	< 100		

Next, values leading:

IC50 [1] [nM]	% Inh MGLL PFC (Human, μM) [2]	IC50 [3] [nM]	Structure (SMILES)
< 100			O=C(OC(C(F)(F)F)C(F)(F)F)N1CCC2(CC1)CCN(C(=O)c1ccc(C(F)(F)F)cc1Cl)C2 [Example 119, 1,1,1,3,3,3-Hexafluoropropan-2-yl 2-(2-chloro-4-(trifluoromethyl)benzoyl)-2,8-diazaspiro[4.5]decane-8-carboxylate]
< 100			O=C(O)[C@H]1CCCN(c2cc(C(F)(F)F)ccc2CN2CC3(CCN(C(=O)OC(C(F)(F)F)C(F)(F)F)CC3)C2)C1 [Example 111, (S)-1-(2-((7-(((1,1,1,3,3,3-hexafluoropropan-2-yl)oxy)carbonyl)-2,7-diazaspiro[3.5]nonan-2-yl)methyl)-5-(trifluoromethyl)phenyl)piperidine-3-carboxylic acid]
< 100			O=C(O)C1CCCCN1c1cc(CN2CC3(CCN(C(=O)OC(C(F)(F)F)C(F)(F)F)CC3)C2)cc(C(F)(F)F)c1 (centres unmarked) [Example 120, 1-(3-((7-(((1,1,1,3,3,3-Hexafluoropropan-2-yl)oxy)carbonyl)-2,7-diazaspiro[3.5]nonan-2-yl)methyl)-5-(trifluoromethyl)phenyl)piperidine-2-carboxylic acid]
< 100			CC(C)(C#Cc1cc(CN2CCCC23CCN(C(=O)OC(C(F)(F)F)C(F)(F)F)CC3)cc(C(F)(F)F)c1)C(=O)O [Example 140, 4-{3-[(8-{[(1,1,1,3,3,3-Hexafluoropropan-2-yl)oxy]carbonyl}-1,8-dazaspiro[4.5]decan-1-yl)methyl]-5-(trifluoromethyl)phenyl]-2,2-dimethylbut-3-ynoic acid]
< 100			O=C(OC(C(F)(F)F)C(F)(F)F)N1CCC2(CC1)CCN(C(=O)c1ccc(C(F)(F)F)c(Cl)c1)C2 [Example 109, 1,1,1,3,3,3-Hexafluoropropan-2-yl 2-(3-chloro-4-(trifluoromethyl)benzoyl)-2,8-diazaspiro[4.5]decane-8-carboxylate]
< 100	### (### is ≥ 75%)	< 100	CN(Cc1ccc(C(F)(F)F)cc1N1CCN(CC(=O)O)CC1)C1(C)CCN(C(=O)OC(C(F)(F)F)C(F)(F)F)CC1 [Example 26, 2-(4-(2-(((1-(((1,1,1,3,3,3-Hexafluoropropan-2-yl)oxy)carbonyl)-4-methylpiperidin-4-yl)(methyl)amino)methyl)-5-(trifluoromethyl)phenyl)piperazin-1-yl)acetic acid]
< 100			O=C(O)C1COCCN1c1cc(CN2CC3(CCN(C(=O)OC(C(F)(F)F)C(F)(F)F)CC3)C2)cc(C(F)(F)F)c1 (centres unmarked) [Example 103, 4-(3-((7-(((1,1,1,3,3,3-Hexafluoropropan-2-yl)oxy)carbonyl)-2,7-diazaspiro[3.5]nonan-2-yl)methyl)-5-(trifluoromethyl)phenyl)morpholine-3-carboxylic acid]
< 100		< 100	CN(Cc1ccc(C(F)(F)F)cc1N1CC2CC1CN2CC(=O)O)C1(C)CCN(C(=O)OC(C(F)(F)F)C(F)(F)F)CC1 (centres unmarked) [Example 27, 2-(5-(2-(((1-(((1,1,1,3,3,3-Hexafluoropropan-2-yl)oxy)carbonyl)-4-methylpiperidin-4-yl)(methyl)amino)methyl)-5-(trifluoromethyl)phenyl)-2,5-diazabicyclo[2.2.1]heptan-2-yl)acetic acid]
< 100	### (### is ≥ 75%)	< 100	O=C(O)CN1CCN(c2cc(CN3CCCC34CCN(C(=O)OC(C(F)(F)F)C(F)(F)F)CC4)cc(C(F)(F)F)c2)CC1 [Example 2, 2-(4-(3-((8-(((1,1,1,3,3,3-Hexafluoropropan-2-yl)oxy)carbonyl)-1,8-diazaspiro[4.5]decan-1-yl)methyl)-5-(trifluoromethyl)phenyl)piperazin-1-yl)acetic acid]
< 100			O=C(O)[C@@H]1CCCN(c2cc(C(F)(F)F)ccc2CN2CC3(CCN(C(=O)OC(C(F)(F)F)C(F)(F)F)CC3)C2)C1 [Example 107, (R)-1-(2-((7-(((1,1,1,3,3,3-Hexafluoropropan-2-yl)oxy)carbonyl)-2,7-diazaspiro[3.5]nonan-2-yl)methyl)-5-(trifluoromethyl)phenyl)piperidine-3-carboxylic acid]
< 100			O=C(O)C1CCN(c2cc(CN3CCC4(CC3)CCN(C(=O)OC(C(F)(F)F)C(F)(F)F)C4)cc(S(F)(F)(F)(F)F)c2)CC1 [Example 226, 1-(3-((2-(((1,1,1,3,3,3-Hexafluoropropan-2-yl)oxy)carbonyl)-2,8-diazaspiro[4.5]decan-8-yl)methyl)-5-(pentafluoro-l6-sulfaneyl)phenyl) piperidine-4-carboxylic acid]
